Experimental data: article PMC10314922, “Fluorescence lifetime FRET assay for live-cell high-throughput screening of the cardiac SERCA pump yields multiple classes of small-molecule allosteric modulators” (Scientific Reports, 2023)
“Also recorded” adds a separate entry of the source. Read-outs that look alike come from different tables or passages of the source.

Assays:
[1] = target: T1, human two-color SERCA2a (2CS) biosensor (Homo sapiens, UniProt P16615, INS508[…]); assay: FRET concentration response curves (FLT-FRET) with the 2CS biosensor in live HEK cells; assay type: cell-based
T1 construct: expressed in transfected cells
T1 sequence (P16615 other isoform, or with tags, fused parts or gaps with the stated changes): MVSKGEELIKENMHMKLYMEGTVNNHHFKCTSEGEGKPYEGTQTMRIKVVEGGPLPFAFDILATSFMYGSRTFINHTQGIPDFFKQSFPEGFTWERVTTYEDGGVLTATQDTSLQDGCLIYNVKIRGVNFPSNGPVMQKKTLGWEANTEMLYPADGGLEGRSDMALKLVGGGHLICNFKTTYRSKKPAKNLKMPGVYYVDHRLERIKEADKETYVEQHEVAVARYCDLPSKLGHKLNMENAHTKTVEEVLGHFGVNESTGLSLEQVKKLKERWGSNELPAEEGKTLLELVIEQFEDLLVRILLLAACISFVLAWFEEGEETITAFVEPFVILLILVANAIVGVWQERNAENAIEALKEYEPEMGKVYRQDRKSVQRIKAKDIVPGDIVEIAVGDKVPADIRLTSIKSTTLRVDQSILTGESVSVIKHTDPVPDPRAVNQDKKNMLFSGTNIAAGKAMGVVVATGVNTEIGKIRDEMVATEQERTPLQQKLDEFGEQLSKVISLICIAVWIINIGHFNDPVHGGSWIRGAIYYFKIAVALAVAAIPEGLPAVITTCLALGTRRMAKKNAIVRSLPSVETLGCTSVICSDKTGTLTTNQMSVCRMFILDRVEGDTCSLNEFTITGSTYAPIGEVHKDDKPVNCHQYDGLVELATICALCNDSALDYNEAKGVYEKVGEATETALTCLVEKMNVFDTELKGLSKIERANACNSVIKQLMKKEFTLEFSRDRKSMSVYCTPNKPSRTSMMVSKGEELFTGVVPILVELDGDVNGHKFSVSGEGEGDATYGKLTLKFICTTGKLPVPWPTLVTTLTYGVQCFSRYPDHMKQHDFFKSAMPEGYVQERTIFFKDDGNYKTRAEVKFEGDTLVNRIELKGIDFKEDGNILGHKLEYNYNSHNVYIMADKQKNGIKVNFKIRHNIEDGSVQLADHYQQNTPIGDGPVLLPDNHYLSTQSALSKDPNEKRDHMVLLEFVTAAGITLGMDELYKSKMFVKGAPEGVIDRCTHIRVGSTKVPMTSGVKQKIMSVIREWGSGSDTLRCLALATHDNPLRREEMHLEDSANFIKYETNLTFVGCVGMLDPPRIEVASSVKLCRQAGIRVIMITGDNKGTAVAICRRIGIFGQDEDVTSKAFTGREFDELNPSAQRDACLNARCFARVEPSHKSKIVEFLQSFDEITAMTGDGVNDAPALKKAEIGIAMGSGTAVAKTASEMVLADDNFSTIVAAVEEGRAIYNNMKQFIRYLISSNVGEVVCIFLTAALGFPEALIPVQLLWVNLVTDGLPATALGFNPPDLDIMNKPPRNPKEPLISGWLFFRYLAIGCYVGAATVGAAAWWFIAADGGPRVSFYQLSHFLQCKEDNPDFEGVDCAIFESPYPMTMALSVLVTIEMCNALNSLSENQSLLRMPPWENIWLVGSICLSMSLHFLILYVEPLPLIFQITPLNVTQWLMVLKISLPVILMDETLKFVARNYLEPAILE
Description: A two-color intramolecular human SERCA2a (2CS) biosensor, based on human cardiac SERCA2a fused to green fluorescent protein (eGFP) and red fluorescent protein (tagRFP) was developed to detect structural changes that are related to the functional changes of SERCA[20],[22],[25]. Briefly, tagRFP was genetically fused to the N-terminus of SERCA (A-domain) and eGFP was inserted as an intrasequence tag before residue 509 in the nucleotide-binding domain (N-domain)[60],[61]. Donor-only and acceptor-only (1CS) biosensors were created in a similar manner as the 2CS biosensor but with the construct containing either only eGFP or only tag-RFP, respectively. […] A null-biosensor construct consisting of eGFP and tagRFP connected by a 32-residue unstructured flexible linker peptide (G32R) was created as described previously[23],[25]. All constructs were cloned into expression vectors containing the genes for antibiotic resistance to G418, puromycin, or blasticidin.
Stable cell lines were generated using either human embryonic kidney (HEK) HEK293 (ATCC, Manassas, VA) or HEK293-6E (National Research Council, Canada) cells. Briefly, cells were transiently transfected with 2CS, 1CS, or G32R null-biosensor plasmids using Lipofecatime 3000 or 293fectin (Thermo Fisher Scientific). Flow cytometry was used to select and enrich for the population of cells expressing respective biosensors. Stable HEK293 cell lines were maintained in phenol red-free DMEM media (Gibco, Waltham, MA) supplemented with 2 mM GlutaMAX (Gibco, Waltham, MA), 10% fetal bovine serum (FBS) (Atlanta Biologicals, Lawrenceville, GA), 1 IU/mL penicillin/streptomycin (Gibco, Waltham, MA), and 250 μg/mL G418 (Fisher Scientific). Stable HEK293-6E cell lines were maintained in F17 media (Sigma Aldrich) supplemented with Kolliphor p188 (Sigma Aldrich, St. Louis, MO), […] GlutaMAX, and either 1 μg/mL puromycin (Invitrogen, Carlsbad, CA) or 2 μg/mL blasticidin (Goldbio) as a selection antibiotic. All cell lines were grown at 37 °C with 5% CO2.
FRET CRC assay plates (0.78–100 μM compound range) with at least ten different compound concentrations were made by adding the appropriate volume of compound or DMSO into black 384 well plates (Greiner Bio-One) using a Mosquito HV (SPTLabTech, United Kingdom). Subsequent Ca^2+-ATPase activity and Ca^2+-transport CRC assay plates (0–50 μM compound range) with repurchased compounds were made in a similar manner using with the Echo 550 (Beckman Coulter) using either 384 well transparent plates (Greiner Bio-One) or black-walled plates with transparent bottoms (Greiner Bio-One), respectively.
On each day of screening, cells were harvested, washed three times with PBS, and centrifuged at 300 g for 5 min. Cells were filtered using a 70 µm cell strainer and diluted to 1–2 × 10^6 cells/mL. Cell concentration and viability were assessed using the Cell countess (Invitrogen) and trypan blue assay. During assays, cells were constantly and gently stirred using a magnetic stir bar at room temperature, keeping the cells in suspension and evenly distributed to avoid clumping. HEK 293-cells expressing 2CS were dispensed at 5 μL or […] per well into assay plates (dispensed into 40 assay plates, each containing 1536 wells) pre-plated with compounds (from a DIVERset 50,000 compound library) using a Multdrop Combi liquid dispenser (Thermo Fisher Scientific, Pittsburg, PA) and sealed until needed. Because the kinetics of membrane permeability, diffusion, and/or binding of the compound to live cells may be compound-dependent, we tested two incubation times, 20 min and 120 min, for the FRET CRC. […] Plates containing eight-point concentration curves of three tool compounds (known SERCA effectors thapsigargin, BHQ, and CPA)[22] were used as positive controls for biosensor function and performance prior to running the full-scale FRET-HTS assay. […]

[2] = target: T2, SERCA2a (Sus scrofa, UniProt P11607); assay: Oxalate-supported Fluo-4 Ca2+-uptake (Ca2+-transport) assay in pig cardiac SR (pCSR) vesicles; assay type: biochemical; details: for Ca2+-Uptake C10: concentration yielding 10% effect; for CR (coupling ratio) VU/VA: maximum Ca2+-uptake rate / Ca2+-ATPase rate at [Ca2+]MAX, DMSO control = 0.66; for Inhibition of Ca2+-uptake (class): strong / moderate / mild; for Decrease of ΔFMAX and ΔFMID for Ca2+-uptake: both [Ca2+], stated as size of decrease
T2 construct: Cardiac SR vesicles were isolated from fresh porcine left ventricular tissue using differential centrifugation; from tissue; host or cells: porcine left ventricular tissue (cardiac SR vesicles)
T2 sequence (P11607 1-997 isoform P11607-2): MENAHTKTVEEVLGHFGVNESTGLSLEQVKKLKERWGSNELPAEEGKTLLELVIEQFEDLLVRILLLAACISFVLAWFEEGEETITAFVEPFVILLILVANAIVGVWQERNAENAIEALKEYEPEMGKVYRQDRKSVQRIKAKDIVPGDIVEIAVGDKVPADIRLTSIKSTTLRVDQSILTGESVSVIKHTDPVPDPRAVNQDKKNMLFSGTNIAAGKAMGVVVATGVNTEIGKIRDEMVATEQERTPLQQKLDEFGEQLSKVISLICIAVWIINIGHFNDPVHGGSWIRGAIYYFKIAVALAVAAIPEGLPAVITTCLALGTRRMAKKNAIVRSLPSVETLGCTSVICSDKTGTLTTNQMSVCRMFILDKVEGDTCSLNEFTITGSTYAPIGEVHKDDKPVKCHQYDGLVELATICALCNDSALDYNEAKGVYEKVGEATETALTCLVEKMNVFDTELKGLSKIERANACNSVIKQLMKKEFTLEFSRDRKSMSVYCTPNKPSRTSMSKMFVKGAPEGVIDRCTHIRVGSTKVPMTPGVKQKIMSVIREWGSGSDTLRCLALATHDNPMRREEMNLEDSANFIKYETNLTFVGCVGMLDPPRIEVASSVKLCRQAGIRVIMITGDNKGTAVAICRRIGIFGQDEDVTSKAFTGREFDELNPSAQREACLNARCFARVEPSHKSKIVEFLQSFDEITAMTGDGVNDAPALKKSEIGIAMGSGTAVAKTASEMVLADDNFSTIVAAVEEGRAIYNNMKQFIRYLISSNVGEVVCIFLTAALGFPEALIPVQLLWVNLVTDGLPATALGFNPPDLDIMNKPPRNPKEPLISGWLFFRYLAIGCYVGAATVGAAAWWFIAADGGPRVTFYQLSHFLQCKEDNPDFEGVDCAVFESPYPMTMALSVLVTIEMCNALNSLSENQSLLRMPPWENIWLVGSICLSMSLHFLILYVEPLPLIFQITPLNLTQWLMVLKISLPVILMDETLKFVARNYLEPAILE
Protocol: (§1) Cardiac SR vesicles were isolated from fresh porcine left ventricular tissue using differential centrifugation of the homogenized tissue as previously described. The SR vesicles were flash-frozen and stored at − 80 °C until needed. The SERCA concentration in the ER preparations purified from HEK cell homogenate is at least 10 times less than in purified porcine cardiac SR[20], but there was sufficient expression of the fluorescent SERCA2a biosensor in HEK cells to detect FRET with high precision by FLT[22],[23],[26].
Ca^2+-transport assays were performed with similar porcine SR samples as in the Ca^2+-ATPase assays described above. The compound effect on the Ca^2+-transport activity of SERCA2a was determined using an oxalate-supported assay in which the change in fluorescence in a Ca^2+-sensitive dye, Fluor-4, was determined as previously described. A buffered solution containing 50 mM MOPS (pH 7.0), 100 mM KCl, 30 mg/mL sucrose, 1 mM EGTA, 10 mM potassium oxalate, 2 µM Fluo-4, 30 µg/mL porcine cardiac SR vesicles, CaCl2 calculated to reach the free [Ca^2+] (pCa 8.0, 6.2, and 5.4), and compound (0.048 to 50 μM) was dispensed into 384-well black walled, transparent bottomed plates (Greiner Bio-One) containing the tested small molecule and incubated at 22℃ for 20 min while covered and protected from light. To start the reaction, MgATP was added to a final concentration of 5 mM, and the decrease in 485-nm excited fluorescence of Fluo-4 was monitored at 520 nm for 15 min using a FLIPR Tetra (Molecular Devices, San Jose, CA).
(§2) SERCA2a activity, F (rate of ATP hydrolysis or Ca^2+ uptake), was measured at varying pCa and varying compound concentration. F measured at [Ca^2+]MAX (saturating, pCa 5.4) or [Ca^2+]MID (subsaturating, midpoint, pCa 6.2) was corrected by subtracting the basal rate at pCa 8.0) and the % effect due to compound was reported. Concentration response curves (CRC) were fitted using the Hill function to determine VMAX (the activity at saturating [compound]), and EC50, the compound concentration at 50% effect.

[3] = target: T2, SERCA2a; assay: NADH-linked Ca2+-ATPase activity assay in pig cardiac SR (pCSR) vesicles; assay type: biochemical; details: for Ca2+-ATPase C10: concentration yielding 10% effect; for Decrease of ΔFMAX and ΔFMID for Ca2+-ATPase activity: both [Ca2+], stated as size of decrease
Protocol: as §1
Functional assays were performed using porcine cardiac SR (pCSR) vesicles. An enzyme-coupled, NADH-linked ATPase assay was used to measure SERCA ATPase activity in 384-well microplates. Each well contained 50 mM MOPS (pH 7.0), 100 mM KCl, 1 mM EGTA, 0.2 mM NADH, 1 mM phosphoenol pyruvate, 10 IU/mL of pyruvate kinase, 10 IU/mL of lactate dehydrogenase, 7 µM of the calcium ionophore A23187 (Sigma), and CaCl2 was added to set free [Ca^2+] to three different concentrations. Ca^2+-ATPase activity was measured at three [Ca^2+]: [Ca^2+]MAX (saturating, pCa 5.4), [Ca^2+]MID (subsaturating, midpoint, pCa 6.2), and [Ca^2+]BAS (basal non-activating, pCa 8.0). 10 μg/mL of SR vesicle, calcium, compound (0.048 to 50 μM), and assay mix were incubated for 20 min at room temperature before measurement of functional assays with each of the 18 hit compounds, because a shorter incubation time than the FRET live-cell assays achieved optimal responses. The assay was started upon the addition of MgATP, at a final concentration of 5 mM (total volume to 80 μL), and absorbance was read at 340 nm in a SpectraMax Plus^384 microplate spectrophotometer (Molecular Devices, Sunnyvale, CA).
as §2

[4] = target: T2, SERCA2a; set-up: method as in PMID 32397211; details: read-out: EC50 of SERCA inhibition; cited from earlier work

In the case of `OCC1(CCOc2ccccc2)CCCN(Cc2cc3c(cc2Cl)OCO3)C1` (stereo not shown) [Compound 13, [1-[(6-chloro-1,3-benzodioxol-5-yl)methyl]-3-(2-phenoxyethyl)-3-piperidinyl]methanol], the EC50 [1] is reported as 9.9 ± 2.1 µM, the EC50 ([2]; [Ca2+]MAX (pCa5.4)) is reported as 3.6 ± 0.1 µM and the “Ca2+-Uptake C10” value ([2]; [Ca2+]MAX (pCa5.4)) is reported as 0.5 µM. For the same compound, the EC50 ([2]; [Ca2+]MID (pCa6.2)) was 6.4 ± 0.2 µM, the “Ca2+-Uptake C10” value ([2]; [Ca2+]MID (pCa6.2)) was 1.0 µM and the “Ca2+-ATPase C10” value ([3]; [Ca2+]MAX (pCa5.4)) was 1 µM. The “Ca2+-ATPase C10” value ([3]; [Ca2+]MID (pCa6.2)) was 1.6 µM.

For `CCc1ccc(S(=O)(=O)N2CCCC(C(=O)c3sccc3C)C2)cc1` (stereo not shown) [Compound 14, {1-[(4-ethylphenyl)sulfonyl]-3-piperidinyl}(3-methyl-2-thienyl)methanone], the EC50 [1] was 9.2 ± 1.1 µM, the EC50 ([2]; [Ca2+]MAX (pCa5.4)) was 3.4 ± 0.2 µM and the “Ca2+-Uptake C10” value ([2]; [Ca2+]MAX (pCa5.4)) was 1.3 µM. The EC50 ([2]; [Ca2+]MID (pCa6.2)) was 3.9 ± 0.2 µM, the “Ca2+-Uptake C10” value ([2]; [Ca2+]MID (pCa6.2)) was 1.7 µM and the “CR (coupling ratio) VU/VA” value [2] was 0.16. The “Inhibition of Ca2+-uptake (class)” value [2] was “M → S; also recorded: moderate-to-strong”, the EC50 ([3]; [Ca2+]MAX (pCa5.4)) was 13 ± 11 µM and the “Ca2+-ATPase C10” value ([3]; [Ca2+]MAX (pCa5.4)) was 6.3 µM. The EC50 ([3]; [Ca2+]MID (pCa6.2)) was 8.9 ± 2.2 µM and the “Ca2+-ATPase C10” value ([3]; [Ca2+]MID (pCa6.2)) was 3.2 µM.

With `CCC(C)(C)c1nnc(NC(=O)NCc2ccc(F)cc2F)s1` [Compound 15, N-(2,4-difluorobenzyl)-N'-[5-(1,1-dimethylpropyl)-1,3,4-thiadiazol-2-yl]urea] the EC50 [1] was 16 ± 4.7 µM, the “Ca2+-Uptake C10” value ([2]; [Ca2+]MAX (pCa5.4)) was 0.9 µM and the “Ca2+-Uptake C10” value ([2]; [Ca2+]MID (pCa6.2)) was 1.7 µM. For the same compound, the “Decrease of ΔFMAX and ΔFMID for Ca2+-uptake” value [2] was 70–95%, the “CR (coupling ratio) VU/VA” value [2] was 0.19 and the “Ca2+-ATPase C10” value ([3]; [Ca2+]MAX (pCa5.4)) was 0.7 µM. The “Ca2+-ATPase C10” value ([3]; [Ca2+]MID (pCa6.2)) was 0.4 µM and the “Decrease of ΔFMAX and ΔFMID for Ca2+-ATPase activity” value [3] was ~ 50%.

With `O=S(=O)(NCc1ccccc1)N1CCc2ccc(C(F)(F)F)cc2C1` [Compound 17, N-benzyl-7-(trifluoromethyl)-3,4-dihydroisoquinoline-2(1H)-sulfonamide] the EC50 [1] was 32 ± 5.3 µM, the “Ca2+-Uptake C10” value ([2]; [Ca2+]MAX (pCa5.4)) was 1 µM and the “Ca2+-Uptake C10” value ([2]; [Ca2+]MID (pCa6.2)) was 2.2 µM. The “Decrease of ΔFMAX and ΔFMID for Ca2+-uptake” value [2] was 70–95%, the “CR (coupling ratio) VU/VA” value [2] was 0.09 and the “Ca2+-ATPase C10” value ([3]; [Ca2+]MAX (pCa5.4)) was 6.2 µM. For the same compound, the “Ca2+-ATPase C10” value ([3]; [Ca2+]MID (pCa6.2)) was 5 µM and the “Decrease of ΔFMAX and ΔFMID for Ca2+-ATPase activity” value [3] was ~ 50%.

In the case of `Cc1nc(N2CCCCCCC2)ncc1C(C)NC(=O)c1ccnn1C` (stereo not shown) [Compound 18, N-{1-[2-(1-azocanyl)-4-methyl-5-pyrimidinyl]ethyl}-1-methyl-1H-pyrazole-5-carboxamide], the EC50 [1] is reported as 3 ± 0.3 µM, the “Ca2+-Uptake C10” value ([2]; [Ca2+]MAX (pCa5.4)) is reported as 8.6 µM and the “Ca2+-Uptake C10” value ([2]; [Ca2+]MID (pCa6.2)) is reported as 22.7 µM. For the same compound, the “CR (coupling ratio) VU/VA” value [2] was 0.49, the “Inhibition of Ca2+-uptake (class)” value [2] was “Mild → M; also recorded: mild-to-moderate” and the “Ca2+-ATPase C10” value ([3]; [Ca2+]MAX (pCa5.4)) was 2.2 µM. The EC50 ([3]; [Ca2+]MID (pCa6.2)) was 0.18 ± 0.2 µM and the “Ca2+-ATPase C10” value ([3]; [Ca2+]MID (pCa6.2)) was 1 µM.

In the case of `C/C=C(/C)C(=O)O[C@H]1C(C)=C2[C@H]([C@@H]1OC(=O)CCCCCCC)[C@@](C)(OC(C)=O)C[C@H](OC(=O)CCC)[C@@]1(O)[C@H]2OC(=O)[C@@]1(C)O` [Tg, thapsigargin], the EC50 [4] is listed as about 0.0075 µM.
